The values below come from patent publication US20240197874A1, “MATERIALS AND METHODS FOR IMPROVING EFFICACY OF ADOPTIVE IMMUNE CELL THERAPY” (priority 2021, published 2024).

For series [1], the system named is lysosomal cathepsin genes (CTSB, CTSD, CTSH and CTSS). As to the kind of experiment: Lysosomal cathepsin gene expression by qRT-PCR. Format: cell-based, human. On the procedure:
FIGS. 6A-6F. Sustained activation of late endosomal mTORC1 suppresses lysosomal activities in naïve CD4 T cell responses. (FIGS. 6A-6F) Naïve CD4 T cells from young (Y) and old (O) individuals were activated for 5 days. Indicated inhibitor or vehicle control was added for the last 2 days of culture (FIGS. 6A-6B and FIGS. 6E-6F). Alternatively, cells were transfected with control or VPS39 siRNA and then activated with anti-CD3/anti-CD28 beads for 5 days (FIGS. 6C-6D). (FIG. 6A, FIG. 6C, FIG. 6E, and FIG. 6F) Lysosomal cathepsins expressions were determined by qRT-PCR (left); results are normalized to control samples using 18S rRNA as internal control; mean+SD of four experiments; comparison by two-tailed paired t-test. Lysosomal activities were determined by flow cytometry-based analysis of cells treated with 5 μg/mL of DQ-BSA for 6 hours. Results are shown as representative histograms (middle) and cumulative data from four experiments (right, two-tailed paired t-test). The gray histogram represents DQ-BSA free samples. […]
Total RNA was isolated using the RNeasy Plus Mini Kit (74134, QIAGEN) and converted to cDNA using the SuperScript VILO cDNA Synthesis Kit (11754, Invitrogen). Quantitative RT-PCR was performed on the ABI 7900HT system (Applied Biosystems) using Power SYBR Green PCR Master Mix (4368706, Thermo Fisher Scientific), according to the manufacturer's instructions.

In series [2] the test system is Naïve CD4 T cells. As to the kind of experiment: DQ-BSA lysosomal activity assay in activated naïve CD4 T cells. Format: cell-based, human. The method, then:
Cells were treated with 5 μg/mL of DQ-BSA (D12050, Thermo Fisher Scientific) diluted in prewarmed medium and incubated at 37° ° C. for 6 hours. Cells were then briefly washed once with ice-cold PBS containing 2% FBS and kept on ice. Fluorescence of cleaved BSA-DQ was analyzed by flow cytometry.

The subject of series [3] is PD-1. It counts as cell-based, human. The following applies: T cells from old adults; day 5.
Series [4] deals with Naïve CD4 T cells. The series is described as follows: Percentage of live cells (Annexin V negative) of activated naïve CD4 T cells with increasing inhibitor doses. It counts as cell-based, human. The following applies: for toxicity of doses used for lysosome inhibition: chloroquine 20 μM, Bafilomycin A1 10 nM. On the procedure:
FIGS. 2A-2H. Naïve CD4 T cells from old adults lose lysosomal function but maintain mTORC1 activity after activation on day 5. (FIG. 2A and FIG. 2B) Naïve CD4 T cells from young and old individuals were activated with anti-CD3/anti-CD28 beads for 5 days followed by DQBSA treatments for 6 hours. Fluorescence of cleaved DQ-BSA was analyzed by flow cytometry to determine lysosome activities (FIG. 2A). Phospho-S6K1 (Thr389) protein expression (right) was determined by Western blotting (FIG. 2B). (FIG. 2C) Naïve CD4 T cells were activated for 5 days in the presence of increasing doses of chloroquine (CQ), bafilomycin A1 (BafA1) or JPH203. The percentage of live cells was determined as the frequency of Annexin V negative population. Mean+SD of four experiments. (FIGS. 2D-2G) Naïve CD4 T cells were activated for 5 days with the last 2-day culture with vehicle, chloroquine (CQ) or bafilomycin A1 (BafA1). Alternatively, cells were transfected with control or TFEB siRNA and activated for 5 days. (FIG. 2D) Lysosomal activities were determined as in (FIG. 2A). (FIG. 2E) mTORC1 activity was determined as in (FIG. 2B). (FIG. 2F) TFEB protein silencing were confirmed by Western blotting on day 5 after activation. (FIG. 2G) AKT phosphorylation was determined by Western blotting on day 5 after activation. **p<0.01; NS, not significant. (FIG. 2H) Naïve CD4 T cells from three old individuals were activated and treated with CQ as in (FIG. 2D). SLC7A5 and c-MYC protein expression were determined. Comparison by two-tailed paired t test. *p<0.05, **p<0.01; NS, not significant.
Isolated human naïve CD4 T cells were activated with Dynabeads Human T-Activator CD3/CD28 (11132D, Thermo Fisher Scientific) in RPMI 1640 (Sigma) supplemented with 10% fetal bovine serum (FBS) and 100 U/mL penicillin and streptomycin (Thermo Fisher Scientific). Mouse T cells were activated in plates coated with 8 μg/mL anti-CD3 Ab (16-0032-82, eBioscience) and 8 μg/mL anti-CD28 Ab (16-0281-82, eBioscience) in culture medium supplemented with 10 ng/ml IL-2 (21212, Peprotech). […]

In series [5] the test system is mTORC1. It counts as cell-based, human. The following applies: for S6K1 phosphorylation (mTORC1 activity) under lysosome inhibition: young individuals, day 5, last 2 days with inhibitor.
For series [6], the system named is mTORC1. As to the kind of experiment: Endosome isolation and in vitro mTORC1 kinase activity assay toward S6K1. It counts as biochemical, human. The following applies: cells pre-treated 2 hours with 1 μM inhibitor; day 3.
Where [7] appears, read: day 5-activated T cells from old adults.
Where [8] appears, read: CQ and JPH203-cotreated young cells vs CQ alone.
The mark [9] stands for this setting: young individuals, day 5, last 2 days with inhibitor.

Each structure is given as a SMILES string.

For `CCC(=O)N1CCN(c2ccc(-n3c(=O)ccc4cnc5ccc(-c6cnc7ccccc7c6)cc5c43)cc2C(F)(F)F)CC1` [Torin 1], in series [1] (setting [7]), the “TFEB-dependent transcription of lysosomal cathepsin genes” value is listed as “partially restored”. For the same molecule, the lysosomal proteolytic activities entry in series [2] (setting [7]) is reported as “partially restored”. Moreover, in series [3], the “cell surface protein expression of PD-1” value is recorded as “reduced cell surface protein expression” and the “transcripts of PD-1” value is listed as “without effects on transcripts”.
Consider `Nc1cc(COc2c(Cl)cc(C[C@H](N)C(=O)O)cc2Cl)c2oc(-c3ccccc3)nc2c1` [JPH203], for which, in series [1] (setting [8]), the lysosomal cathepsins result is given as “increased”. For the same molecule, the “cytotoxicity (percentage of live cells, Annexin V negative)” value in series [4] (5 μM, titration experiments, activated naïve CD4 T cells) is reported as “not cytotoxic”. The “inhibition of mTORC1 activity” value in series [5] (5 μM, phosphorylation of S6RP, titration experiments) is listed as “about 50%”. In addition, the “mTORC1 activity on day 3” value in series [5] (day 3 after activation, young and old cells, 5 μM) was “reduced mTORC1 activity in both young and old cells”. Besides, the “excess mTORC1 activity on day 5 in old activated T cells” value in series [5] (day 5, old adults, inhibitor for last 2 days, 5 μM) is “sensitive to SLC7A5 inhibition”. For the same molecule, the lysosomal activities entry in series [2] (setting [8]) is “increased”.
With `Cl.Cl.NC1(c2ccc(-c3nc4ccn5c(=O)[nH]nc5c4cc3-c3ccccc3)cc2)CCC1` [AKT inhibitor, MK-2206 2HCl], the “mTORC1 kinase activity of endosome isolates toward the substrate S6K1” value in series [6] was “not seen”.
As to `CO/C1=C\C(C)=C\[C@@H](C)[C@@H](O)[C@@H](C)C/C(C)=C/C=C/[C@H](OC)[C@@H]([C@@H](C)[C@@H](O)[C@H](C)[C@@]2(O)C[C@@H](O)[C@H](C)[C@@H](C(C)C)O2)OC1=O` [Bafilomycin A1], the “toxicity of doses used for lysosome inhibition” value in series [4] was “nontoxic”. Moreover, the “S6K1 phosphorylation (mTORC1 activity) under lysosome inhibition” value in series [5] was “neither reduced S6K1”. In addition, the lysosomal activities result in series [2] (setting [9]) is on record as “reduced lysosomal activities”.
On to `CCN(CC)CCCC(C)Nc1ccnc2cc(Cl)ccc12` (centres unmarked) [chloroquine, Chloroquine], for which the “toxicity of doses used for lysosome inhibition” value in series [4] is “nontoxic”. For the same molecule, in series [5], the “S6K1 phosphorylation (mTORC1 activity) under lysosome inhibition” value is on record as “neither reduced S6K1”. Further, in series [2] (setting [9]), the lysosomal activities entry is on record as “reduced lysosomal activities”.
